Experimental data as given in paper PMC10045663, “Synthesis, In Vitro Biological Evaluation of Antiproliferative and Neuroprotective Effects and In Silico Studies of Novel 16E-Arylidene-5α,6α-epoxyepiandrosterone Derivatives” (Biomedicines, 2023).

Key:
Format in all cases: cell-based
[1] = tested on: NHDF cells (normal human dermal fibroblasts); assay: MTT cell proliferation assay, NHDF cells; conditions: 72 h, non-tumoral cells, read-out: Estimated IC50, NHDF
[2] = tested on: PNT1A (normal prostate cells); assay: MTT cell proliferation assay, PNT1A cells; conditions: 72 h, non-tumoral cells, read-out: Estimated IC50, PNT1A
[3] = tested on: N27 (rat dopaminergic neuronal cells); assay: MTT cell proliferation assay, N27 cells; conditions: 72 h, non-tumoral cells, read-out: Estimated IC50, N27
[4] = tested on: LNCaP cells (androgen-dependent prostatic cancer); assay: MTT cell proliferation assay, LNCaP cells; conditions: 72 h
[5] = tested on: all cell lines (NHDF, PNT1A, N27, LNCaP, PC-3, MCF-7); assay: MTT preliminary screening, all cell lines taken together; conditions: 50 µM, 72 h
Method: LNCaP, PC-3, MCF-7, PNT1A, N27, and NHDF cells were obtained from the American Type Culture Collection (ATCC; Manassas, VA, USA) and were cultured in 75 cm^2 culture flasks at 37 °C in a humidified air incubator with 5% CO2. LNCaP, PC-3, PNT1A, and N27 cells, respectively, were cultured in RPMI 1640 medium (Sigma-Aldrich, Inc. St. Louis, MO, USA) with 10% fetal bovine serum (FBS; Sigma-Aldrich, Inc. St. Louis, MO, USA) and 1% of the antibiotic mixture of 10,000 U/mL penicillin G and […] streptomycin (Sp, Sigma-Aldrich, Inc. St. Louis, MO, USA). MCF-7 cells were cultured in DMEM medium (Sigma-Aldrich, Inc. St. Louis, MO, USA) supplemented with 10% fetal bovine serum (FBS; Sigma-Aldrich, Inc. St. Louis, MO, USA) and 1% antibiotic/antimycotic (10,000 U/mL penicillin G, […] streptomycin, and 25 µg/mL amphotericin B: Ab, Sigma-Aldrich, Inc. St. Louis, MO, USA). Finally, NHDF cells were cultured in RPMI 1640 medium supplemented with 10% FBS, 2 mM L-glutamine, 10 mM HEPES, 1 mM sodium pyruvate, and 1% of the antibiotic/antimycotic Ab, and these cells were used in passages 10th to 14th. For all cell types, the medium was renewed every 2 days until cells nearly reached the confluence state. When cells reach approximately 90–95% confluence, they are gently detached by trypsinization (trypsin-EDTA solution: 0.125 g/L of trypsin and 0.02 g/L of EDTA). Before each experiment, viable cells were counted in a Neubauer chamber by a trypan-blue exclusion assay and adequately diluted in the appropriate complete cell culture medium.
All tested compounds were dissolved in dimethyl sulfoxide (DMSO; Sigma-Aldrich, Inc. St. Louis, MO, USA) at a concentration of 10 mM and stored at 4 °C. From the mother-solutions, the diluted solutions of the compounds, in different concentrations, were prepared in the respective complete culture medium before each experiment.
After reaching a confluence state, cells were trypsinized and counted by the trypan-blue exclusion assay and then seeded with an initial density of 2 × 10^4 cells/mL in 96-well culture plates (Nunc, Apogent, Denmark) and left to adhere and grow for 48 h. Subsequently, the medium was removed, and the cells were treated with compound solutions (10 and 50 µM for preliminary studies and 0.01, 0.1, 1, 10, 50, and 100 µM for concentration-response studies) in complete culture medium for 72 h. 5-Fluorouracil (5-FU) was used as a positive control, and untreated cells were used as the negative control. Compounds leading to cell proliferation relative to control clearly below 50%, at 10 µM, or clearly below 25%, at 50 µM, in the screening studies were selected to concentration-response studies in tumoral cell lines. Each experiment was performed in quadruplicate and independently at least two times. The in vitro antiproliferative effects were evaluated by the MTT assay (Sigma-Aldrich, Inc. St. Louis, MO, USA). After the incubation period, the medium was removed, and 100 µL of phosphate buffer saline (PBS, NaCl 137 mM; KCl 2.7 mM; Na2HPO4 10 mM; and KH2PO4 1.8 mM in deionized water with a pH adjusted to 7.4) were used to wash the cells. Then, 100 µL of the MTT solution (5 mg/mL) was prepared in the appropriate serum-free medium and added to each well, followed by incubation for 4 h at 37 °C. Hereafter, the MTT containing medium was removed, and the formazan crystals were dissolved in DMSO. Then, the absorbance was measured at 570 nm using a xMarkTM microplate spectrophotometer from BIO-RAD Laboratories. Cell viability values were expressed as percentages relative to the negative control.

MCF-7 cells = assay: Immunocytochemistry assay, Ki67 staining; conditions: 48 h
Method: MCF-7 cells were trypsinized and counted by the trypan-blue exclusion assay, and then cells were seeded with an initial density of 3 × 10^4 cells/mL in 24-well culture plates (Nunc, Apogent, Denmark) containing circular coverslips of 10 mm diameter. Following seeding (48 h), cells were treated with 1 and 10 µM concentrations of 5-FU, as positive controls, and steroid 19 for 48 h. Untreated cells were used as a negative control. After this period, photograph shots were acquired at an optical microscope coupled with a digital camera (Supplementary Material, S2). Subsequently, the medium was removed, and cells were fixed with 10% formalin (15 min, room temperature). After fixation, cells were washed three times with PBS, permeabilized, and blocked for non-specific binding sites for 1 h with 0.5% Triton X-100 and 6% BSA at room temperature. Cells were incubated at 4 °C with 30 μL/coverslip of primary antibody, rabbit polyclonal anti-Ki67 (1:50, Abcam Plc.), prepared in 0.3% BSA and 0.1% Triton X-100, overnight. Then, cells were washed three times with PBS and incubated for 1 h, at room temperature, with 30 μL/coverslip of a solution containing the secondary antibody, Alexa Fluor 488 donkey anti-rabbit (1:200, Life Technologies), and the nuclear marker Hoechst-33342 (1:500, Life Technologies) prepared in PBS. Lastly, the coverslips were washed three times with PBS, mounted on a drop of the fluoroshield mounting medium (Abcam, Plc.) on a microscope slide, and left to dry for 24 h. Photomicrographs were taken using an Axio Imager A1 microscope (Carl Zeiss, Göttingen, Germany) with the 40 × objective.

In the case of “(E)-16-(2,3-Dichlorobenzylidene)-3-hydroxy-5α ,6α -epoxy-10,13-dimethyl-1,3,4,7,8,9,10,11,12,13,15,16-dodecahydro-2H-cyclopenta[α ]phenanthren-17(14H)-one [Compound 19]”, the IC50 [1] is reported as 18.7 µM, the IC50 [2] is reported as 12.8 µM and the IC50 [3] is reported as 13.3 µM. For the same substance, the “effect on LNCaP cell proliferation” value ([4]; LNCaP, 10 µM) was “no relevant effects”, the “decrease in LNCaP cell proliferation” value ([4]; LNCaP, 50 µM) was “higher than 75%” and the IC50 ([4]; MTT, tumoral cells, read-out: Estimated IC50, LNCaP) was 12.8 µM. The relative cell proliferation [5] was no more than 50%, the “Ki67-positive cells relative to control” value (MCF-7 cells; MCF-7, 1 µM) was “none of the compounds significantly affected” and the “Ki67-positive cells relative to control” value (MCF-7 cells; MCF-7, 10 µM) was “statistically significant decrease”.
